pIC50: −log10 of the molar value.
Molecular target: T1, NOX (Homo sapiens, UniProt P04839)
T1 construct: HL60 differentiation to the neutrophil phenotype was triggered by adding Me2SO; endogenous in cells; host or cells: HL-60 cells differentiated with DMSO (1.25% v/v, 6 days) to the neutrophil phenotype
T1 sequence (P04839 1-570): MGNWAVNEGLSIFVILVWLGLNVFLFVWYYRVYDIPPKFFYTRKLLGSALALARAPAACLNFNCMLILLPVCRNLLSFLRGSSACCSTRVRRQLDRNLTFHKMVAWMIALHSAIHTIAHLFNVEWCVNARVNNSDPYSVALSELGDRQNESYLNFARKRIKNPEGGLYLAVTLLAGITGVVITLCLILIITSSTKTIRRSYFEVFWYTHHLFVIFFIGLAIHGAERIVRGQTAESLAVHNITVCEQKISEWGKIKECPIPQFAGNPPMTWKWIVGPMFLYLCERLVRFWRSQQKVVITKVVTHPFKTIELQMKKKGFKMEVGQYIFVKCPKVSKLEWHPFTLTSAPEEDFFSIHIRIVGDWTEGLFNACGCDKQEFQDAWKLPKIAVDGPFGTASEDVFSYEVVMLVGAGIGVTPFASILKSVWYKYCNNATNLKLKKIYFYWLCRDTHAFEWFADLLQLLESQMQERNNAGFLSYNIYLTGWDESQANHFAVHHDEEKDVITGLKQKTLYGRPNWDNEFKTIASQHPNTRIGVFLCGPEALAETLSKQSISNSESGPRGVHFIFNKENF
T1 sequence (P13498 1-195 partner): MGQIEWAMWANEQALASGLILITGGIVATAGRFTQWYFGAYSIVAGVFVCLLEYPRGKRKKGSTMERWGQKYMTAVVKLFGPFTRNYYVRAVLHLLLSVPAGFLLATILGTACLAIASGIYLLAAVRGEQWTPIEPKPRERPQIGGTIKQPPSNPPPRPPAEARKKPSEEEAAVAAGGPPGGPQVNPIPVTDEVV
Assay: Amplex Red measurement of extracellular hydrogen peroxide (NOX activity) using DMSO-differentiated HL60 cells
Assay type: cell-based
Conditions: DMSO-differentiated HL60 cells; for Inhibition (%) of NOX activity: test concentration not given
Description: The activity of the compounds according to the invention may be tested for their activity in the inhibition or reduction of formation of reactive oxygen species (ROS) from oxygen in cells. The activity of the compounds is tested in the following cell cultures by different techniques such as nitroblue tetrazolium, Amplex Red, Chemiluminescence (Luminol) and 2′,7′-dichlorodihydrofluorescein diacetate (H2DCF-DA) according to the protocols detailed below.
Human acute myeloid leukemia cell line HL-60 was cultured in RPMI 1640 (Invitrogen) supplemented with 10% heat-inactivated calf serum, 2 mM glutamine, 100 U/mL penicillin (Sigma), and 100 μg streptomycin (Sigma) at 37° C. under a humidified atmosphere of 5% CO2. HL60 differentiation to the neutrophil phenotype was triggered by adding Me2SO (final concentration 1.25% v/v for 6 days) to the culture medium.
Extracellular hydrogen peroxide was measured using Amplex UltraRed (Molecular Probes). Cells were trypsinized (1× Trypsin-EDTA), collected by centrifugation, and resuspended in HBSS supplemented with 1% glucose. Cells were seeded into black 96-well plates at a density of 50,000 cells in 200 μl testing buffer (HBSS 1% glucose containing 0.005 U/mL horseradish peroxidase (Roche) and 50 μM Amplex Red in the presence or absence of compounds according to the invention. As a control, DPI was included at a final concentration of 10 μM The plates were placed in the fluorescent Optima Fluorescent plate reader and kept at 37° C. during 20 min. Fluorescence was measured for […] with excitation and emission wavelengths of 544 nm and 590 nm respectively. NOX activities were expressed as % of the activity in control cells. Residual activity of DPI-treated cells was usually <10%.
The Table 2 below summarizes the percentage of inhibition of NOX activity as measured by Amplex Red using DMSO-differentiated HL60 cells as described above:
The Table 3 below summarizes the IC50 of NOX activity as measured by Amplex Red using DMSO-differentiated HL60 cells as described above: […]

Compound | pIC50 | Inhibition (%) of NOX activity [%]
CCCCc1c2c(=O)n(C)[nH]c2cc(=O)n1Cc1ccc(Cl)cc1 [Compound 8, 4-Butyl-5-(4-Chlorobenzyl)-2-Methyl-1H-Pyrazolo[4,3-c]Pyridine-3,6(2H,5H)-Dione] | > 5.30 | 79
COc1cccc(Cn2c(C)c3c(=O)n(CCN4CCOCC4)[nH]c3cc2=O)c1 [Compound 83, 5-(3-methoxybenzyl)-4-methyl-2-(2-morpholin-4-ylethyl)-1H-pyrazolo[4,3-c] pyridine-3,6(2H,5H)-dione] | > 5.30 | 89
COCCn1[nH]c2cc(=O)n(C)c(-c3ccc(Cl)cc3)c2c1=O [Compound 77, 4-(4-chlorophenyl)-2-(2-methoxyethyl)-5-methyl-1H-pyrazolo[4,3-c]pyridine-3,6 (2H,5H)-dione] | > 5.30 | 90
Cn1[nH]c2cc(=O)n(CC3CNC(=O)C3)c(-c3ccc(Cl)cc3)c2c1=O (stereo not drawn) [Compound 100, 4-(4-chlorophenyl)-2-methyl-5-[(5-oxopyrrolidin-3-yl)methyl]-1H-pyrazolo[4,3-c] pyridine-3,6(2H,5H)-dione] |  | 90
COCCn1[nH]c2cc(=O)n(-c3cccc(NC(C)=O)c3)c(C)c2c1=O [Compound 19, N-{3-[2-(2-methoxyethyl)-4-methyl-3,6-dioxo-1,2,3,6-tetrahydro-5H-pyrazolo[4,3-c]pyridin-5-yl]phenyl} acetamide] | > 5.30 | 73
CC(=O)N1CCC(Cn2c(-c3ccc(Cl)cc3)c3c(=O)n(C)[nH]c3cc2=O)CC1 [Compound 98] |  | 92
COCCn1c(CCCOc2ccccc2)c2c(=O)n(CCN3CCOCC3)[nH]c2cc1=O [Compound 74, 5-(2-methoxyethyl)-2-(2-morpholin-4-ylethyl)-4-(3-phenoxypropyl)-1H-pyrazolo[4,3-c]pyridine-3,6 (2H,5H)-dione] | > 5.30 | 95
Cc1c2c(=O)n(Cc3ccc(Cl)cc3)[nH]c2cc(=O)n1Cc1ccccn1 [Compound 2, 2-(4-Chlorobenzyl)-4-Methyl-5-(Pyridin-2-Ylmethyl)-1H-Pyrazolo[4,3-c]Pyridine-3,6(2H,5H)-Dione] | > 5.30 | 61
COCCn1[nH]c2cc(=O)n(CCOC)c(CCCOc3ccccc3)c2c1=O [Compound 94, 2,5-bis(2-methoxyethyl)-4-(3-phenoxypropyl)-1H-pyrazolo[4,3-c]pyridine-3,6 (2H,5H)-dione] | > 5.30 | 90
COc1cccc(Cc2c3c(=O)n(Cc4ccccc4)[nH]c3cc(=O)n2Cc2ccccn2)c1 [Compound 21, 2-benzyl-4-(3-methoxybenzyl)-5-(pyridin-2-ylmethyl)-1H-pyrazolo[4,3-c] pyridine-3,6(2H,5H)-dione] | > 5.30 | 74
Cc1c2c(=O)n(C)[nH]c2cc(=O)n1C [Compound 5, 2,4,5-Trimethyl-1H-Pyrazolo[4,3-c]Pyridine-3,6(2H,5H)-Dione] | > 5.30 | 48
COCCn1[nH]c2cc(=O)n(CCOC)c(-c3ccc(Cl)cc3)c2c1=O [Compound 58, 4-(4-chlorophenyl)-2,5-bis(2-methoxyethyl)-1H-pyrazolo[4,3-c]pyridine-3,6 (2H,5H)-dione] | > 5.30 | 95
Cn1c(COc2ccc(F)cc2)c2c(=O)n(CCN3CCOCC3)[nH]c2cc1=O [Compound 86, 4-[(4-fluorophenoxy)methyl]-5-methyl-2-(2-morpholin-4-ylethyl)-1H-pyrazolo[4,3-c] pyridine-3,6(2H,5H)-dione] | > 5.30 | 87

Source: patent US9006238B2, “Pyrazolo pyridine derivatives as NADPH oxidase inhibitors” (Genkyotex SA, priority 2008, dated 2015)
